Among the test systems are PC-3; SNB-78; DMS-273; XF498; T47D; HOP-18; M19-MEL; LXFL 529.
Holding throughout (assay): NCI tumour cell line growth inhibition, 48 h

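A five-concentration, 48-hour dose response in 96-well plates underlies each endpoint, interpolated linearly between surrounding concentrations. The concentration for 50% growth inhibition is given as GI50.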 Calls of active or inactive are those of the source. No stated cut-off is given here; in the data, active = GI50 up to about 1.1 µM and inactive = higher.

As to `OC(CBr)C(O)C(O)C(O)CBr` (stereo unspecified), the GI50 in the experiment with PC-3 is > 81.1 µM (inactive); in the experiment with SNB-78, > 100 µM (inactive); in the experiment with DMS-273 it was 26.6 µM (inactive); with XF498, 80.5 µM (inactive); in the experiment with T47D, > 100 µM (inactive); in the experiment on HOP-18, > 100 µM (inactive). Also, the GI50 in the experiment on M19-MEL was > 100 µM (inactive).
For `Cc1ccc(P(c2ccc(C)cc2)c2ccc(C)cc2)cc1`, the GI50 was 30.6 µM (inactive) in the experiment on PC-3 and 16.3 µM (inactive) in the experiment on T47D.
For `C=C(Br)C(C)(Cl)CCC(Br)C(C)(C)Cl` (stereo unspecified), in that order: 39.4 µM (inactive) and > 100 µM (inactive).
For `O=S(=O)(O)Nc1ccc(-c2nc3ccccc3s2)cc1Cl`, in that order: > 100 µM (inactive) and > 100 µM (inactive).
Regarding `CC(C)OP(=O)(OC(C)C)c1nc(-c2ccccc2)n(-c2ccc([N+](=O)[O-])cc2)n1`, the GI50 in the experiment with DMS-273, in the experiment on LXFL 529, with XF498 and in the experiment on M19-MEL was > 100 µM (inactive) in each case.
Regarding `C/C1=C\C=C(\C(C)C)CC/C(C(=O)O)=C\CC/C(C)=C/CC1` [NEOCROTOCEMBRANEIC ACID], the GI50 in the experiment with PC-3 was 18 µM (inactive); in the experiment on T47D, 34.4 µM (inactive).
For `C/C(Cl)=N\OC(=O)Nc1ccccc1C(F)(F)F`, in that order: > 100 µM (inactive) and 80.2 µM (inactive).
As to `COc1ccc(C(C2=C(O)COC2=O)c2cc3c(cc2O)OCO3)cc1OC` (stereo unspecified), the GI50 in the experiment on PC-3 is > 100 µM (inactive).
Turning to `O=C1OC(c2cccc(C(F)(F)F)c2)(c2cccc(C(F)(F)F)c2)c2ccc3ccccc3c21`, the GI50 with SNB-78 is > 10 µM (inactive); in the experiment on DMS-273, > 10 µM (inactive); in the experiment with LXFL 529 it was 8.24 µM (inactive); in the experiment on XF498 it was > 100 µM (inactive); with HOP-18 it was > 10 µM (inactive).
Turning to `COc1cc(OC)c(OC)cc1/C=C\c1ccnc2ccccc12`, the GI50 with PC-3 is 0.532 µM (active); with SNB-78 it was 1.2 µM (inactive); in the experiment with DMS-273, 0.317 µM (active); with LXFL 529 it was 1.45 µM (inactive); in the experiment with T47D it was 0.771 µM (active); in the experiment with M19-MEL, 0.851 µM (active).
`Cc1cc2nc3ccccc3n2c2nc(N)ccc12`: the GI50 was 40.4 µM (inactive) in the experiment on PC-3 and 38.2 µM (inactive) in the experiment with T47D.
For `O=C(c1ccc2ccccc2c1O)N1CCCCC1`, in that order: > 100 µM (inactive) and 71.3 µM (inactive).
With `O=C(Nc1ccc(/N=N/c2ccccc2)cc1)Sc1ccccc1C(=O)O`, the GI50 with SNB-78, with DMS-273 and with LXFL 529 was > 100 µM (inactive) each time.
`Cn1nc2ccc3nccc(N(CCO)CCO)c3c2n1`: the GI50 in the experiment with SNB-78, in the experiment with DMS-273, in the experiment on LXFL 529, with XF498, with HOP-18 and with M19-MEL was > 100 µM (inactive) in each case.
Turning to `FC(F)(F)c1ccc2c(c1)N(CCCNCCN1CCOCC1)c1ccccc1S2`, the GI50 with SNB-78 was 11.6 µM (inactive); in the experiment on DMS-273, 16.8 µM (inactive); with LXFL 529, 12.7 µM (inactive); with XF498, 3.81 µM (inactive); with M19-MEL, 7.14 µM (inactive).
With `CC(C)C(=O)OCN(C)c1nc(N(C)COC(=O)C(C)C)nc(N(C)COC(=O)C(C)C)n1`, the figures for the GI50 with PC-3 and in the experiment with T47D were 27.7 µM (inactive) and 30.3 µM (inactive), respectively.
The like results for `COC1CC(OC2CCC3(C)C(=CCC4C3C(OC(C)=O)C(OC(=O)CC(C)C)C3(C)C(C(C)=O)CCC43O)C2)OC(C)C1OC1CC(OC)C(OC2CC(OC)C(OC3OC(C)C(OC4OC(CO)C(O)C(O)C4O)C(OC)C3O)C(C)O2)C(C)O1` (stereo unspecified) were, in that order, > 75 µM (inactive) and > 75 µM (inactive).
For `COc1ccc2c(c1)C(=O)CC(C(N)=O)C2` (stereo unspecified), in that order: > 100 µM (inactive) and > 100 µM (inactive).
Regarding `O=CN1CCN(c2ccc3ccc(O)nc3n2)CC1`, the GI50 in the experiment with PC-3 is > 100 µM (inactive).
Take `COc1ccc(-c2c(-c3ccccc3)c(C)nc3[nH]c(=S)[nH]c(=S)c23)cc1OC`: the values for the GI50 with PC-3 and in the experiment on T47D were 25.1 µM (inactive) and 38.3 µM (inactive), respectively.
As to `CCOC(=O)c1c(N2CCCC2)[nH]c(=O)c(C(c2cccs2)c2c(O)c(C(=O)OCC)c(N3CCCC3)[nH]c2=O)c1O`, the GI50 in the experiment with PC-3 and with T47D was > 100 µM (inactive) in each case.
For the compound `C/C(=N\NC(=O)c1ccncc1)c1ccc2ccccc2c1O`, the results for the GI50 in the experiment with PC-3 and in the experiment on T47D were 5.6 µM (inactive) and 1.01 µM (active), respectively.
Take `COc1cc(C=O)cc(/C=N/c2ccc(Br)cc2)c1O`: the figures for the GI50 in the experiment with PC-3 and in the experiment on T47D were 2.81 µM (inactive) and 1.15 µM (inactive), respectively.
As to `CC(=O)NC1CC2Oc3ccc(C)cc3C(C)(O2)C1O` (stereo unspecified), the GI50 in the experiment on DMS-273, in the experiment with XF498, in the experiment with HOP-18 and in the experiment on M19-MEL was > 100 µM (inactive) throughout.
For `CSc1nc(NCc2ccccc2)c2cnn(COCCO)c2n1`, the GI50 is 58.1 µM (inactive) in the experiment on PC-3 and 53.7 µM (inactive) in the experiment on T47D.
Turning to `COc1cc(-c2cc(-c3ccccc3)nc(-c3c(OC)ccc4c(C)cc(=O)oc34)c2)cc(OC)c1OC`, the GI50 in the experiment on PC-3 and in the experiment with T47D was > 100 µM (inactive) throughout.
`[O-][S+]1c2ccccc2N=C(c2ccc(Cl)cc2)CC1c1cccs1` (stereo unspecified): the GI50 was 35 µM (inactive) in the experiment with SNB-78, 14.6 µM (inactive) in the experiment on DMS-273, 29.2 µM (inactive) with HOP-18 and 17.7 µM (inactive) with M19-MEL.
As to `COC(=O)C1CCCN1C(=O)OC(C)(C)C` (stereo unspecified), the GI50 with PC-3 and with T47D was > 100 µM (inactive) in each case.
Regarding `C=CCSc1nnc2cc(CN3CCCC3)c(-c3ccc(Cl)cc3)nn12`, the GI50 in the experiment with PC-3 is 17.9 µM (inactive); in the experiment with T47D, 20.9 µM (inactive).
Turning to `CCCCS(=O)(=O)Nc1ccc(Nc2c3ccccc3nc3ccccc23)c(OC)c1`, the GI50 was 5.5 µM (inactive) in the experiment with SNB-78; 0.395 µM (active) in the experiment with DMS-273; 2.19 µM (inactive) with XF498; 7.52 µM (inactive) with HOP-18; 4.61 µM (inactive) in the experiment with M19-MEL.
Regarding `O=C(O)c1cc(Sc2ccc([N+](=O)[O-])c(C(=O)O)c2)ccc1[N+](=O)[O-]`, the GI50 with PC-3 and in the experiment with T47D was > 100 µM (inactive) throughout.
Take `CCOC(=O)c1csc(NC(=O)C(C)N2CCCC2)n1` (stereo unspecified): the GI50 in the experiment on PC-3 and in the experiment with T47D was > 100 µM (inactive) each time.
On to `N#Cc1ccsc1Nc1ccccc1[N+](=O)[O-]`, for which the GI50 in the experiment with PC-3 and in the experiment on T47D was > 100 µM (inactive) in each case.
For the compound `O=C(Nc1ccc(F)cc1)c1cc2c(cc1Cl)Sc1nccn1S2(=O)=O`, the GI50 was 90.6 µM (inactive) in the experiment on PC-3 and 45.9 µM (inactive) in the experiment with T47D.
The like results for `COc1ccc(/C=C2/SC(c3c(O)ccc4ccccc34)N(NC(=O)CCCCCCCCC(=O)NN3C(=O)/C(=C\c4ccc(OC)c(OC)c4)SC3c3c(O)ccc4ccccc34)C2=O)cc1OC` (stereo unspecified) were, in that order, 1.48 µM (inactive) and 2.19 µM (inactive).
`O=S(=O)(Nc1ccccc1)c1ccc(-c2c3nc(c(-c4ccc(S(=O)(=O)Nc5ccccc5)cc4)c4ccc([nH]4)c(-c4ccc(S(=O)(=O)Nc5ccccc5)cc4)c4nc(c(-c5ccc(S(=O)(=O)Nc6ccccc6)cc5)c5ccc2[nH]5)C=C4)C=C3)cc1`: the GI50 in the experiment on PC-3 and in the experiment on T47D was > 31.6 µM (inactive) each time.
For the compound `CCC(CC)C(=O)OC[n+]1ccc(-c2c(COC(=O)NC(C)C)c(COC(=O)NC(C)C)c3n2CCC3)cc1`, the GI50 in the experiment on PC-3 was > 100 µM (inactive).
Consider `CCN(CC(=O)O)C(=O)c1cccnc1`, for which the GI50 in the experiment on PC-3 and in the experiment on T47D was > 100 µM (inactive) each time.
For `O=c1[nH]c(C2CCCCC2)nc2ccc(Cl)cc12`, the GI50 in the experiment on SNB-78, in the experiment with DMS-273, in the experiment on LXFL 529 and with M19-MEL was > 100 µM (inactive) in each case.
For the compound `O=C(C/C=C/c1ccccc1)c1ccccc1`, in the experiment with T47D, the GI50 was 16.9 µM (inactive).
On to `Cc1nc2ccc(S(=O)(=O)NS(=O)(=O)c3ccc(-c4ccccc4)cc3)cc2c(=O)n1NS(=O)(=O)c1ccc(-c2ccccc2)cc1`, for which the GI50 in the experiment on PC-3 and with T47D was > 100 µM (inactive) each time.
As to `CCC(C)[C@H]1C(=O)N=C(N)N1C(=O)OCc1ccccc1` (stereo partly specified), in the experiment with PC-3, the GI50 was > 100 µM (inactive).
As for `O=c1c2c3c(sc2nc2n1N=C(c1ccc([N+](=O)[O-])cc1)CS2)CCCC3`, the GI50 in the experiment with PC-3 and with T47D was > 100 µM (inactive) in each case.
Regarding `Cc1cc(O)c2c(c1)C(=O)c1c(c(O)cc(O)c1-c1c(O)cc(O)c3c1C(=O)c1cc(C)cc(O)c1C3=O)C2=O` [SKYRIN], the GI50 with SNB-78 was 26.9 µM (inactive); with DMS-273, 7.76 µM (inactive); in the experiment with XF498, 21.1 µM (inactive); in the experiment with HOP-18, 10.4 µM (inactive); with M19-MEL, 17.1 µM (inactive).
Consider `O=C1CCCSC(=O)N1Cc1ccccc1`, for which the GI50 in the experiment on PC-3 and with T47D was > 100 µM (inactive) each time.
With `Cc1cc2c(cc1C(=O)CCC(=O)O)CC1(C2)Cc2cc(C)c(C(=O)CCC(=O)O)cc2C1`, the GI50 with PC-3 and with T47D was > 100 µM (inactive) in each case.
For the compound `COc1ccc2c(c1)CCCN1Cc3cc(OC)c(OC)cc3CC21` (stereo unspecified), the GI50 in the experiment on PC-3 is > 100 µM (inactive); with T47D it was 20.2 µM (inactive).
The like results for `N=C(N)SCCc1ccncc1` were, in that order, > 100 µM (inactive) and > 100 µM (inactive).
In the case of `CCN(CC)CC1CCCCCCCCCCC1=O` (stereo unspecified), the GI50 in the experiment on SNB-78, in the experiment with DMS-273, in the experiment with LXFL 529, with XF498 and in the experiment on M19-MEL was > 100 µM (inactive) throughout.
For `O=C1/C(=c2\c3ccccc3n3c(=O)c4ccccc4nc23)Nc2ccccc21` [CANDIDINE], the GI50 in the experiment with PC-3 is > 100 µM (inactive); in the experiment with T47D, > 26.7 µM (inactive).
For `O=C1c2cc3c(cc2CC12Cc1cc4c(cc1C2)CCC4)CCC3`, in that order: > 100 µM (inactive) and > 100 µM (inactive).
The like results for `O=C(O)CSC(CC1(c2ccc(Cl)cc2)NC(=O)CS1)c1ccc(Cl)cc1` (stereo unspecified) were, in that order, > 100 µM (inactive) and 80.9 µM (inactive).
